Laboratory results from PMC4960549, “Structure-Activity Analysis of Gram-positive Bacterium-producing Lasso Peptides with Anti-mycobacterial Activity” (Scientific Reports, 2016).
Positions of bridges follow the written chain, without caps; N, C: chain ends. No end group written: not given here.

System: M. smegmatis 607
Assay: Anti-mycobacterial activity by paper disk method
Assay type: cell-based, Mycobacterium smegmatis
Conditions: for Inhibition zone: paper disk (6 mm) containing 1 μg peptide on Middlebrook 7H9 agar spread with M. smegmatis 607 (approx. 1.5 × 10^8 CFU/ml), 37 °C, 48 hr, diameter of inhibitory zone, average from two independent experiments, '-' = no zone (activity lost); for Anti-mycobacterial activity compared with lariatin A (in words): M. smegmatis, paper disk method, 1 μg per disk
Procedure: To gain insights into the structure-activity relationships of lariatin A, anti-mycobacterial activity of 20 lariatin variants against M. smegmatis was evaluated by paper disk method (Fig. 4). Among lariatin variants related to the macrolactam ring, the anti-mycobacterial activity of Tyr6 variant only was lost, while the replacement of Tyr6 with tryptophan and phenylalanine didn’t affect the anti-mycobacterial activity. […] Furthermore, Gly11 and Asn14 were closely involved in the anti-mycobacterial activity because of the loss of the activity in their variants. […] Thus, it was shown that the positively charged amino acid residue was favorable at the residue at position 17. Also, it was shown that the amino acid residue without bulky or branched side chains at the residues at positions 15, 16 and 18 contributed to the higher potency.
Figure 4 Anti-mycobacterial activity of lariatin variants. Anti-mycobacterial activities of lariatin variants were evaluated by a paper disk method. Value of the inhibition zone against M. smegmatis and relative activity in comparison with lariatin A were shown here. Bar color represents potency of each compound when the value of inhibition zone of lariatin A is set up at 100%: yellow, <50% activity; green, 50–120% activity; blue, >120% activity. Value of inhibition zone represents the average from two independent experiments. TEXT PRINTED IN THE PICTURE: Lariatin A: Inhibition zone (mm): 21.8 | S2A: Inhibition zone (mm): 20.4 | Q3A: Inhibition zone (mm): 16.3 | L4A: Inhibition zone (mm): 8.9 | V5A: Inhibition zone (mm): 11.3 | Y6A: Inhibition zone (mm): - | V10A: Inhibition zone (mm): 7.6 | G11A: Inhibition zone (mm): - | H12A: Inhibition zone (mm): 12.7 | S13A: Inhibition zone (mm): 19.8 | N14A: Inhibition zone (mm): - | V15A: Inhibition zone (mm): 20.7 | I16A: Inhibition zone (mm): 24.0 | K17A: Inhibition zone (mm): 10.4 | P18A: Inhibition zone (mm): 29.6 | V15A/I16A: Inhibition zone (mm): 29.3 | Y6F: Inhibition zone (mm): 30.7 | Y6W: Inhibition zone (mm): 22.8 | R7K: Inhibition zone (mm): 26.5 | W9Y: Inhibition zone (mm): 14.9 | K17R: Inhibition zone (mm): 31.1
Antimicrobial activity of lariatins against M. smegmatis 607 was measured by a paper disk method. The cell suspension of M. smegmatis 607 was adjusted to approximately 1.5 × 10^8 CFU ml^−1 in a Middlebrook 7H9 broth (Difco, Becton Dickinson, Sparks, MD, USA) containing 0.05% Tween 80 and 10% ADC enrichment (5.0% bovine albumin fraction V, 2.0% dextrose and catalase (30 μg/ml)), and were spread on a Middlebrook 7H9 agar plate. A paper disk (6 ϕ mm, Advantec Toyo Kaisha, Ltd. Tokyo, Japan) containing 1 μg lariatin variants was placed on the agar plate and was incubated at 37 °C for 48 hr. A diameter (mm) of the inhibitory zone observed around the paper disk was measured to evaluate the anti-mycobacterial activity.

| Substance | Inhibition zone | Anti-mycobacterial activity compared with lariatin A (in words) |
| --- | --- | --- |
| H12A: lariatin A variant, alanine substitution at position 12 (GSQLVYREWVGASNVIKP; lactam N-8 (inferred); not fully specified; ends not checked; UniProt H7C8I3 27-44, looked up, variant H12A) | 12.7 mm |  |
| K17A: lariatin A variant, alanine substitution at position 17 (GSQLVYREWVGHSNVIAP; lactam N-8 (inferred); not fully specified; ends not checked; UniProt H7C8I3 27-44, looked up, variant K17A) | 10.4 mm | weaker activity |
| Lariatin A (GSQLVYREWVGHSNVIKP; lactam N-8 (inferred); ends not checked; UniProt H7C8I3 27-44, looked up) [18-residue lasso peptide from Rhodococcus jostii K01-B0171, macrolactam ring between Gly1 and Glu8, C-terminal tail threaded through ring] | 21.8 mm |  |
| P18A: lariatin A variant, alanine substitution at position 18 (GSQLVYREWVGHSNVIKA; lactam N-8 (inferred); not fully specified; ends not checked; UniProt H7C8I3 27-44, looked up, variant P18A) | 29.6 mm | more potent activity than lariatin A |
| S13A: lariatin A variant, alanine substitution at position 13 (GSQLVYREWVGHANVIKP; lactam N-8 (inferred); not fully specified; ends not checked; UniProt H7C8I3 27-44, looked up, variant S13A) | 19.8 mm |  |
| V15A: lariatin A variant, alanine substitution at position 15 (GSQLVYREWVGHSNAIKP; lactam N-8 (inferred); not fully specified; ends not checked; UniProt H7C8I3 27-44, looked up, variant V15A) | 20.7 mm |  |
| Y6F: lariatin A variant, Tyr6 replaced with phenylalanine (GSQLVFREWVGHSNVIKP; lactam N-8 (inferred); ends not checked; UniProt H7C8I3 27-44, looked up, variant Y6F) | 30.7 mm |  |
